Data from ChEMBL document CHEMBL1772933, “Didemnidines A and B, indole spermidine alkaloids from the New Zealand ascidian Didemnum sp” (J Nat Prod, 2011).
The source made the active and inactive calls. The rule behind the calls is not given here.

How the values were obtained:
[1] = system: Neutrophil; assay: Inhibition of PMA-stimulated superoxide production in human neutrophils assessed as respiratory burst; type: functional, cell-based
[2] = system: Trypanosoma brucei rhodesiense; assay: Antiparasitic activity against bloodstream form of Trypanosoma brucei rhodesiense STIB 900 after 72 hrs by microplate reader assay; type: functional, organism-based; conditions: STIB 900, 72 h
[3] = system: Trypanosoma cruzi; assay: Antiparasitic activity against intracellular amastigotes of Trypanosoma cruzi Tulahuen C2C4 expressing LacZ gene infected in rat L6 cells after 96 hrs by photometrically; type: functional, organism-based; conditions: Tulahuen C2C4, L6, 96 h
[4] = system: Leishmania donovani; assay: Antiprotozoal activity against Leishmania donovani MHOM/ET/67/L82 after 72 hrs by fluorimetry; type: functional, organism-based; conditions: MHOM/ET/67/L82, 72 h
[5] = system: Plasmodium falciparum; assay: Antimalarial activity against chloroquine- and pyrimethamine-resistant Plasmodium falciparum K1 assessed as [3H]-hypoxanthine incorporation after 48 hrs by liquid scintillation counting; type: functional, organism-based
[6] = system: L6; assay: Cytotoxicity against rat L6 cells after 72 hrs by alamar blue assay; type: cell-based; conditions: L6, 72 h
[7] = molecular target: T1, Phospholipase A2 (Apis mellifera) (UniProt P00630); assay: Inhibition of Apis mellifera venom PLA2 by colorimetric bioassay
T1 sequence (whole entry): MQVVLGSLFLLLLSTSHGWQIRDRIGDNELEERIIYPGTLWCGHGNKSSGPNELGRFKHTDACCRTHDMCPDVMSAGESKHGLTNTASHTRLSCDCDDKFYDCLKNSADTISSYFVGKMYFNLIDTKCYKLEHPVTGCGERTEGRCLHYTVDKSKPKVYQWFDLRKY

[8] = system: Saccharomyces cerevisiae; assay: Inhibition of yeast FTase in presence of farnesyl pyrophosphate

Row | SMILES | inhibition [1] | IC50 [2] | IC50 [3] | IC50 [4] | IC50 [5] | IC50 [6] | inhibition [7] | inhibition [8]
1 | O=C1NC(=O)C(c2c[nH]c3cc(Br)ccc23)=C1c1cnc[nH]1 | inactive |  |  |  |  |  |  | 
2 | NCCCCNCCCNC(=O)C(=O)c1c[nH]c2ccccc12 [DIDEMNIDINE A] | inactive | 59 µM | 130 µM | > 180 µM | 41 µM | 24 µM | inactive | inactive
3 | Cn1cncc1C1=C(c2c[nH]c3cc(Br)ccc23)C(=O)NC1=O | inactive |  |  |  |  |  |  | 
4 | CCCCCCCCCCCCCCCCOP(=O)([O-])OCC[N+](C)(C)C [MILTEFOSINE] |  |  |  | 0.52 µM |  |  |  | 
5 | CC(C)(C)OC(=O)NCCCCNCCCNC(=O)C(=O)c1c[nH]c2cc(Br)ccc12 | inactive | 9.9 µM | 28 µM | > 160 µM | 8.4 µM | 25 µM | inactive | inactive
6 | COc1cc([C@@H]2c3cc4c(cc3[C@H](O)[C@H]3COC(=O)[C@H]23)OCO4)cc(OC)c1OC [PODOFILOX] |  |  |  |  |  | 0.01 µM |  | 
7 | O=C(Cn1ccnc1[N+](=O)[O-])NCc1ccccc1 [BENZNIDAZOLE] |  |  | 1.35 µM |  |  |  |  | 
8 | CC(C)(C)OC(=O)NCCCCNCCCNC(=O)C(=O)c1c[nH]c2ccccc12 | inactive | 34 µM | 88 µM | > 190 µM | 32 µM | 73 µM | inactive | inactive
9 | O=C1NC(=O)C(c2c[nH]c3ccccc23)=C1c1cnc[nH]1 | inactive |  |  |  |  |  |  | 
10 | Cn1cncc1C1=C(c2c[nH]c3ccccc23)C(=O)NC1=O | inactive |  |  |  |  |  |  | 
11 | NCCCCNCCCNC(=O)C(=O)c1c[nH]c2cc(Br)ccc12 [DIDEMNIDINE B] | inactive | 44 µM | 82 µM | > 160 µM | 15 µM | 25 µM | inactive | inactive
